tested on: HBV; test: Anti-HBV assay (inhibition of HBV replication in HepG2.cl42 cells, HBV DNA by qPCR); assay type: cell-based, HBV ayw strain; conditions: Hepatitis B virus, 96 h, treated four days, HBV DNA quantified by real time PCR, read-out: HBsAg EC50

| Compound | EC50 |
| --- | --- |
| C[C@H]1Cc2noc(N3C(=O)CCC3=O)c2CN1C(=O)Nc1cc(F)c(F)c(F)c1 [Compound 60, (S)-3-(2,5-dioxopyrrolidin-1-yl)-6-methyl-N-(3,4,5-trifluorophenyl)-6,7-dihydroisoxazolo[4,3-c]pyridine-5(4H)-carboxamide] | ≥ 1 µM |
| C[C@H]1Cc2noc(N3CCC(C)(C)C3=O)c2CN1C(=O)Nc1cc(F)c(F)c(F)c1 [Compound 57, (S)-3-(3,3-dimethyl-2-oxopyrrolidin-1-yl)-6-methyl-N-(3,4,5-trifluorophenyl)-6,7-dihydroisoxazolo[4,3-c]pyridine-5(4H)-carboxamide] | < 0.1 µM |
| C[C@H]1Cc2noc(-c3ccccc3)c2CN1C(=O)Nc1cc(F)c(F)c(F)c1 [Compound 15] | 0.1 to 1 µM |
| Cc1cccc(-c2onc3c2CN(C(=O)Nc2cc(F)c(F)c(F)c2)[C@@H](C)C3)c1 [Compound 23] | ≥ 1 µM |
| C[C@H]1Cc2noc(-c3ccn(C)n3)c2CN1C(=O)Nc1cc(F)c(F)c(F)c1 [Compound 33] | < 0.1 µM |
| CC1Cc2noc(-c3ccc(F)cc3F)c2CN1C(=O)Nc1cc(F)c(F)c(F)c1 (stereo not shown) [Compound 3.1, 3-(2,4-difluorophenyl)-6-methyl-N-(3,4,5-trifluorophenyl)-6,7-dihydroisoxazolo[4,3-c]pyridine-5(4H)-carboxamide] | 0.1 to 1 µM |
| C[C@H]1Cc2noc(N3CCCC3=O)c2CN1C(=O)Nc1ccc(F)c(C#N)c1 [Compound 53, (S)—N-(3-cyano-4-fluorophenyl)-6-methyl-3-(2-oxopyrrolidin-1-yl)-6,7-dihydroisoxazolo[4,3-c]pyridine-5(4H)-carboxamide] | < 0.1 µM |
| COc1ccc(-c2onc3c2CN(C(=O)Nc2cc(F)c(F)c(F)c2)[C@@H](C)C3)cc1 [Compound 9, (S)-3-(4-methoxyphenyl)-6-methyl-N-(3,4,5-trifluorophenyl)-6,7-dihydroisoxazolo[4,3-c]pyridine-5(4H)-carboxamide] | < 0.1 µM |
| O=C(Nc1cc(F)c(F)c(C(F)F)c1)N1CCc2noc(N3CCCOC3=O)c2C1 [Compound 45, N-(3-(difluoromethyl)-4,5-difluorophenyl)-3-(2-oxo-1,3-oxazinan-3-yl)-6,7-dihydroisoxazolo[4,3-c]pyridine-5(4H)-carboxamide] | < 0.1 µM |
| O=C(Nc1cc(F)c(F)c(F)c1)N1CCc2noc(N3CCCC3)c2C1 [Compound 5.3, 3-(pyrrolidin-1-yl)-N-(3,4,5-trifluorophenyl)-6,7-dihydroisoxazolo[4,3-c]pyridine-5(4H)-carboxamide] | ≥ 1 µM |
| C[C@H]1Cc2noc(N3CCCCC3=O)c2CN1C(=O)Nc1ccc(C#N)c(F)c1 [Compound 47, (S)—N-(4-cyano-3-fluorophenyl)-6-methyl-3-(2-oxopiperidin-1-yl)-6,7-dihydroisoxazolo[4,3-c]pyridine-5(4H)-carboxamide] | 0.1 to 1 µM |
| C[C@H]1Cc2noc(N3CCCCC3=O)c2CN1C(=O)Nc1cc(F)c(F)c(F)c1 [Compound 46, (S)-6-methyl-3-(2-oxopiperidin-1-yl)-N-(3,4,5-trifluorophenyl)-6,7-dihydroisoxazolo[4,3-c]pyridine-5(4H)-carboxamide] | < 0.1 µM |
| C[C@H]1Cc2noc(-c3cccc(Cl)c3)c2CN1C(=O)Nc1cc(F)c(F)c(F)c1 [Compound 22] | ≥ 1 µM |
| Cc1nc(-c2onc3c2CN(C(=O)Nc2cc(F)c(F)c(F)c2)[C@@H](C)C3)co1 [Compound 35] | 0.1 to 1 µM |
| O=C(Nc1cc(F)c(F)c(F)c1)N1CCc2noc(N3CCOC3=O)c2C1 [Compound 5.2, 3-(2-oxooxazolidin-3-yl)-N-(3,4,5-trifluorophenyl)-6,7-dihydroisoxazolo[4,3-c]pyridine-5(4H)-carboxamide] | 0.1 to 1 µM |
| Cc1nc(-c2onc3c2CN(C(=O)Nc2cc(F)c(F)c(F)c2)[C@@H](C)C3)c(C)o1 [Compound 39] | 0.1 to 1 µM |
| C[C@H]1c2c(noc2-c2ccc(F)cn2)CCN1C(=O)Nc1cc(F)c(F)c(F)c1 [Compound 28, (S)-3-(5-fluoropyridin-2-yl)-4-methyl-N-(3,4,5-trifluorophenyl)-6,7-dihydroisoxazolo[4,3-c]pyridine-5(4H)-carboxamide] | 0.1 to 1 µM |

| Compound | EC50 |
| --- | --- |
| C[C@H]1Cc2noc(-c3ccc(C#N)cc3)c2CN1C(=O)Nc1cc(F)c(F)c(F)c1 [Compound 19] | 0.1 to 1 µM |
| C[C@H]1Cc2noc(N3CCCC3=O)c2CN1C(=O)Nc1cc(F)c(F)c(F)c1 [Compound 8.1, (S)-6-methyl-3-(2-oxopyrrolidin-1-yl)-N-(3,4,5-trifluorophenyl)-6,7-dihydroisoxazolo[4,3-c]pyridine-5(4H)-carboxamide] | < 0.1 µM |
| C[C@H]1c2c(noc2-c2cnn(C)c2)CCN1C(=O)Nc1cc(F)c(F)c(F)c1 [Compound 32] | ≥ 1 µM |
| O=C(Nc1cc(F)c(F)c(F)c1)N1CCc2onc(-c3ccc(F)cc3F)c2C1 [Compound 7.1, 3-(2,4-difluorophenyl)-N-(3,4,5-trifluorophenyl)-6,7-dihydroisoxazolo[4,5-c]pyridine-5(4H)-carboxamide] | 0.1 to 1 µM |
| CC1c2c(noc2-c2ccc(F)cc2F)CCN1C(=O)Nc1cc(F)c(F)c(F)c1 (stereo not shown) [Compound 4.1, 3-(2,4-difluorophenyl)-4-methyl-N-(3,4,5-trifluorophenyl)-6,7-dihydroisoxazolo[4,3-c]pyridine-5(4H)-carboxamide] | ≥ 1 µM |
| COC[C@@H]1CN(c2onc3c2CN(C(=O)Nc2cc(F)c(F)c(F)c2)[C@@H](C)C3)C(=O)O1 [Compound 61, (S)-3-((S)-5-(methoxymethyl)-2-oxooxazolidin-3-yl)-6-methyl-N-(3,4,5-trifluorophenyl)-6,7-dihydroisoxazolo[4,3-c]pyridine-5(4H)-carboxamide] | 0.1 to 1 µM |
| C[C@H]1Cc2noc(N3CCC(CC(=O)O)C3=O)c2CN1C(=O)Nc1cc(F)c(F)c(F)c1 (stereo partly drawn) [Compound 63, 2-(1-((S)-6-methyl-5-((3,4,5-trifluorophenyl)carbamoyl)-4,5,6,7-tetrahydroisoxazolo[4,3-c]pyridin-3-yl)-2-oxopyrrolidin-3-yl)acetic acid] | ≥ 1 µM |
| C[C@H]1Cc2noc(-c3cccc(F)c3)c2CN1C(=O)Nc1cc(F)c(F)c(F)c1 [Compound 21] | 0.1 to 1 µM |
| O=C(Nc1cc(F)c(F)c(F)c1)C1CCc2noc(-c3ccc(F)cc3F)c2C1 (stereo not shown) [Compound 6.1, 3-(2,4-difluorophenyl)-N-(3,4,5-trifluorophenyl)-4,5,6,7-tetrahydrobenzo[c]isoxazole-5-carboxamide] | 0.1 to 1 µM |
| C[C@H]1Cc2noc(N3CCOC3=O)c2CN1C(=O)Nc1cc(F)c(F)c(F)c1 [Compound 55, (S)-6-methyl-3-(2-oxooxazolidin-3-yl)-N-(3,4,5-trifluorophenyl)-6,7-dihydroisoxazolo[4,3-c]pyridine-5(4H)-carboxamide] | 0.1 to 1 µM |
| C[C@H]1Cc2noc(-c3cnn(C)c3)c2CN1C(=O)Nc1cc(F)c(F)c(F)c1 [Compound 31] | 0.1 to 1 µM |
| C[C@H]1c2c(noc2-c2cn(C)nn2)CCN1C(=O)Nc1cc(F)c(F)c(F)c1 [Compound 38] | ≥ 1 µM |
| C[C@H]1Cc2noc(N3CCCOC3=O)c2CN1C(=O)Nc1ccnc(C(F)F)c1 [Compound 52, (S)—N-(2-(difluoromethyl)pyridin-4-yl)-6-methyl-3-(2-oxo-1,3-oxazinan-3-yl)-6,7-dihydroisoxazolo[4,3-c]pyridine-5(4H)-carboxamide] | 0.1 to 1 µM |
| Cc1cc(-c2onc3c2[C@H](C)N(C(=O)Nc2cc(F)c(F)c(F)c2)CC3)no1 [Compound 26, (S)-4-methyl-3-(5-methylisoxazol-3-yl)-N-(3,4,5-trifluorophenyl)-6,7-dihydroisoxazolo[4,3-c]pyridine-5(4H)-carboxamide] | ≥ 1 µM |
| Cc1nc(-c2onc3c2CN(C(=O)Nc2cc(F)c(F)c(F)c2)[C@@H](C)C3)cs1 [Compound 29, (S)-6-methyl-3-(2-methylthiazol-4-yl)-N-(3,4,5-trifluorophenyl)-6,7-dihydroisoxazolo[4,3-c]pyridine-5(4H)-carboxamide] | 0.1 to 1 µM |
| C[C@H]1Cc2noc(-c3ccccc3F)c2CN1C(=O)Nc1cc(F)c(F)c(F)c1 [Compound 10] | 0.1 to 1 µM |
| C[C@H]1c2c(noc2C2CCCC2)CCN1C(=O)Nc1cc(F)c(F)c(F)c1 [Compound 44] | ≥ 1 µM |

From patent US20210079015A1, “NOVEL DIHYDROISOXAZOLE COMPOUNDS AND THEIR USE FOR THE TREATMENT OF HEPATITIS B” (Novartis AG, priority 2017, published 2021)
